{
  "source": "paper PMC11677752",
  "about": "(Pharmaceutics, 2024)",
  "key": {"[1]": {"test_system": "MRP2", "settings": "cited from earlier work"}, "[2]": {"test_system": "NAT", "settings": "cited from earlier work; for Inhibition of 5-ASA Ac-CoA-dependent metabolism: alternative NAT substrates"}, "[3]": {"settings": "three animal species (rats, rabbits, and pigs); cited from earlier work"}, "[4]": {"experiment": "Regional luminal fluid pH in rats", "assay_type": "in vivo", "settings": "lansoprazole 5 mg/mL/kg i.p. 1 h before oral 5-ASA solution in 5% NaHCO3; 3 h after 5-ASA; untreated control rats […] ± 0.60, p = 0.07"}, "[5]": {"design": "method as in PMID 3557190", "settings": "healthy volunteers, intravenous dose 0.50 g, oral dose 2.42 g; cited from earlier work"}, "[6]": {"test_system": "peptide transporter 1 (PEPT1)", "design": "method as in PMID 28867741", "settings": "cited from earlier work"}, "[7]": {"experiment": "5-ASA membrane distribution study in rats (GI membrane concentrations)", "settings": "fed rats, oral 30 mg/2.2 mL/kg", "method": "The animal study was performed according to the Care and Use of Laboratory Animals of the Committee for Animal Experiments of Fukuyama University (2023-A-10). Male Sprague Dawley rats were purchased from Japan SLC, Inc. (Hamamatsu, Japan). After feeding for several days, the rats that weighed 200 to 300 g were used for the membrane distribution studies. […] Separately, the fed rats were treated with lansoprazole, which was dissolved with a small amount of dimethyl sulfoxide (DMSO) and then diluted with physiological saline to make a lansoprazole solution (5 mg/mL); this solution was injected intraperitoneally at a 5 mg/mL/kg dose. […] One milliliter of water was poured into each isolated segment’s lumen and the luminal fluid pH was measured using a compact pH meter (HORIBA, LAQUA twin®, Kyoto, Japan). The intestinal tract was opened and cleaned with ice-cold 0.9% NaCl solution, frozen in liquid nitrogen, and stored at −80 °C until analysis.\nAn L-column 2 ODS (150 mm × 4.6 mm, particle size 5 µm, CERI Co., Ltd., Saitama, Japan) was used, and the mobile phase was a mixture of 0.1 M acetic acid, acetonitrile, and triethylamine (920:100:2, v/v/v). The mobile phase flow rate was 1 mL/min. […] The HPLC system (Shimadzu, Kyoto, Japan) comprised a model LC20AD pump, a 20 µL fixed injection loop, and a fluorescence spectrophotometer (Shimadzu, RF10AXL). […]"}},
  "data": [
    {"smiles": "CN(C)C(=O)CCSC(SCCC(=O)O)c1cccc(/C=C/c2ccc3ccc(Cl)cc3n2)c1", "note": "(centres unmarked) [MK571]", "values": [
      {"measurement": "PappBA/PappAB permeability ratio of AC-5-ASA in presence of the MRP inhibitor", "setting": "[1]; Caco-2 cells", "value": "~1"}
    ]},
    {"smiles": "NNC(=O)c1ccncc1", "note": "[isoniazid]", "values": [
      {"measurement": "Inhibition of 5-ASA Ac-CoA-dependent metabolism", "setting": "[2]", "value": "inhibited"}
    ]},
    {"smiles": "C[C@]12C=CC(=O)C=C1CC[C@@H]1[C@@H]2[C@@H](O)C[C@@]2(C)[C@H]1CC[C@]2(O)C(=O)CO", "note": "[prednisolone]", "values": [
      {"measurement": "Correlation of solubility with gastrointestinal pH", "setting": "[3]", "value": "not correlated significantly"}
    ]},
    {"smiles": "CC(=O)Nc1ccc(O)c(C(=O)O)c1", "note": "[AC-5-ASA, N-acetyl-5-ASA]", "values": [
      {"measurement": "PappBA/PappAB ratio", "setting": "[1]; Caco-2 cells", "value": 4.89},
      {"measurement": "Substrate for MRP2", "setting": "[1]", "value": "is a substrate"}
    ]},
    {"smiles": "Cc1c(OCC(F)(F)F)ccnc1C[S+]([O-])c1nc2ccccc2[nH]1", "note": "(centres unmarked) [lansoprazole]", "values": [
      {"measurement": "Gastric pH", "setting": "[4]", "value": "4.77 ± 0.12"}
    ]},
    {"smiles": "O=c1c(O)c(-c2ccc(O)c(O)c2)oc2cc(O)cc(O)c12", "note": "[quercetin]", "values": [
      {"measurement": "PappBA/PappAB permeability ratio of AC-5-ASA in presence of the MRP inhibitor", "setting": "[1]; Caco-2 cells", "value": "~1"}
    ]},
    {"smiles": "Nc1ccc(C(=O)N[C@@H](CCC(=O)O)C(=O)O)cc1", "note": "[p-aminobenzoylglutamate]", "values": [
      {"measurement": "Inhibition of 5-ASA Ac-CoA-dependent metabolism", "setting": "[2]", "value": "inhibited"}
    ]},
    {"smiles": "Nc1ccc(O)c(C(=O)O)c1", "note": "[5-ASA, 5-Aminosalicylic acid]", "values": [
      {"measurement": "Km", "setting": "[2]; saturable, read-out: Km of Ac-CoA-dependent metabolism", "value": 5.8, "unit": "µM"},
      {"measurement": "Substrate for MRP2", "setting": "[1]", "value": "is not a substrate and not"},
      {"measurement": "Absolute oral bioavailability", "setting": "[5]", "value": 15.5, "unit": "%"},
      {"measurement": "Inhibition of PEPT1-mediated uptake transport", "setting": "[6]", "value": "can inhibit"},
      {"measurement": "Time for remaining unabsorbed 5-ASA in the small intestine to reach the distal intestine", "setting": "[7]", "value": "≤ 8", "unit": "h"},
      {"measurement": "Time for some fraction of orally administered 5-ASA to reach the cecum/proximal colon", "setting": "[7]", "value": "≤ 3", "unit": "h"}
    ]}
  ]
}
